The source of these data is BindingDB's records for doi:10.1111/j.1747-0285.2007.00617.x (Burnham Institute For Medical Research, 2008).

The target in assay [1] is Matrix metalloproteinase-9 (Homo sapiens, UniProt P14780). The assay is described as follows: MMP Inhibition Assay. The procedure: (§1) This assay was performed as outlined in the Anaspec MMP assay kit. The fluorescence peptide cleavage assay was performed in a 96-well plate in which each reaction mixture contained 5-FAM / QXL520 and activated MMP-2 or MMP-9 in assay buffer, and the screening compounds.

Assay [2] has as its target 72 kDa type IV collagenase (Homo sapiens, UniProt P08253). The assay is described as follows: MMP Inhibition Assay. As for the experimental part: as §1

One may read the IC50 as the concentration at which inhibition is half-maximal.

Sequence of Matrix metalloproteinase-9 (P14780 whole entry): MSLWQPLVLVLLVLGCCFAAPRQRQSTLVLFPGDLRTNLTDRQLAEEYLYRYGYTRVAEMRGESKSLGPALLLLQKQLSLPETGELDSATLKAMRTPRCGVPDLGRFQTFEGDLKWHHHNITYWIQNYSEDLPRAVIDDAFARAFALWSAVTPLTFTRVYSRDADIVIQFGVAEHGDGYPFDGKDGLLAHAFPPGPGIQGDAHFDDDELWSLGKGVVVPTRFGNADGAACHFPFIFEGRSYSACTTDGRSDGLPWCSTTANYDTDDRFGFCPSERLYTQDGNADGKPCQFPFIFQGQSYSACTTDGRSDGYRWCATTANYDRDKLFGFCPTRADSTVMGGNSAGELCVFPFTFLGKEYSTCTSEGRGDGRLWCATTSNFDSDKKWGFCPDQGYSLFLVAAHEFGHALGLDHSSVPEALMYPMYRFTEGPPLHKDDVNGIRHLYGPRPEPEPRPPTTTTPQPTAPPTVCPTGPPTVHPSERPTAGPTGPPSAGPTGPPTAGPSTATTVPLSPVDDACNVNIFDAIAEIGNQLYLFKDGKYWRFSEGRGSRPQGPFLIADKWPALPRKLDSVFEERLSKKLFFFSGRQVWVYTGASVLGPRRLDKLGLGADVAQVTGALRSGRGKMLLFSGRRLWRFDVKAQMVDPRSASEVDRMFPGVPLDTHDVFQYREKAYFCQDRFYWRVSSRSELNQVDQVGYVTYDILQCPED
Sequence of 72 kDa type IV collagenase (P08253 whole entry): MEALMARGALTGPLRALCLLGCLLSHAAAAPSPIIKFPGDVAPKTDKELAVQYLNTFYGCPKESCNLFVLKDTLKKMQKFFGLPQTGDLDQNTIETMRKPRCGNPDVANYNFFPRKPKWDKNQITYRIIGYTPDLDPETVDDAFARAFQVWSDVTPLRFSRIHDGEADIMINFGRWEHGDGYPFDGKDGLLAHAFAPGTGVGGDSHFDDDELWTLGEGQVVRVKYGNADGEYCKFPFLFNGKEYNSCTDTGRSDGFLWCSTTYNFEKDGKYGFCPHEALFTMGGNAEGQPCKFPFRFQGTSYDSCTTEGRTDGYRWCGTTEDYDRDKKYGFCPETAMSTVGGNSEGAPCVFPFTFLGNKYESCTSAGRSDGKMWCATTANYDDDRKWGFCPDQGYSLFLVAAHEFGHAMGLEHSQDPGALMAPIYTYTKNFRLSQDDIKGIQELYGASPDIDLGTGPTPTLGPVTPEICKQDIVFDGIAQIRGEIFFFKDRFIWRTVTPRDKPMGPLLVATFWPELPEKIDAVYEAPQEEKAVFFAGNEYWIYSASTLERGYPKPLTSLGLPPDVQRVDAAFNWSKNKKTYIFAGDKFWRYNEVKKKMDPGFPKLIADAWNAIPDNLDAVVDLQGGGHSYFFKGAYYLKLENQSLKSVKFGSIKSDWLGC

As for `O=C(O)CN1C(=O)/C(=C/c2cc(-c3ccccc3)on2)SC1=S` [2-[(5Z)-4-oxo-5-[(5-phenyl-1,2-oxazol-3-yl)methylidene]-2-sulfanylidene-1,3-thiazolidin-3-yl]acetic acid], the concentration for half-maximal inhibition (IC50) in assay [1] was 50 µM; in assay [2], over 100 µM.
Turning to `Cc1nc(/C=C2\SC(=S)N(CC(=O)O)C2=O)c(C)o1` [2-[(5Z)-5-[(2,5-dimethyl-1,3-oxazol-4-yl)methylidene]-4-oxo-2-sulfanylidene-1,3-thiazolidin-3-yl]acetic acid], the IC50 in assay [1] and in assay [2] was over 100 µM each time.
Take `Cc1nc(-c2ccccc2)c(/C=C2\SC(=S)N(CC(=O)O)C2=O)s1` [2-[(5Z)-5-[(2-methyl-4-phenyl-1,3-thiazol-5-yl)methylidene]-4-oxo-2-sulfanylidene-1,3-thiazolidin-3-yl]acetic acid]: the IC50 in assay [1] and in assay [2] was over 100 µM throughout.
As for `CC(C)(C)OC(=O)N1CCC(c2nc(/C=C3\SC(=S)N(CC(=O)O)C3=O)cs2)CC1` [2-[(5Z)-5-[(2-{1-[(tert-butoxy)carbonyl]piperidin-4-yl}-1,3-thiazol-4-yl)methylidene]-4-oxo-2-sulfanylidene-1,3-thiazolidin-3-yl]acetic acid], the 50% inhibitory concentration (IC50) in assay [1] and in assay [2] was over 100 µM each time.
In assay [1], `O=C(O)CN1C(=O)/C(=C/c2c[nH]c3ccc(Br)cc23)SC1=S` [2-[(5Z)-5-[(5-bromo-1H-indol-3-yl)methylidene]-4-oxo-2-sulfanylidene-1,3-thiazolidin-3-yl]acetic acid] yielded a 50% inhibitory concentration (IC50) of over 100 µM.
For the molecule `O=C(O)CN1C(=O)/C(=C/c2cc(-c3ccc(Br)cc3)on2)SC1=S` [2-[(5Z)-5-{[5-(4-bromophenyl)-1,2-oxazol-3-yl]methylidene}-4-oxo-2-sulfanylidene-1,3-thiazolidin-3-yl]acetic acid], the results for the IC50 in assay [1] and in assay [2] were 27.4 µM and over 100 µM, respectively.
As for `O=C(O)CN1C(=O)/C(=C/c2cc(-c3ccc(Cl)cc3)on2)SC1=S` [2-[(5Z)-5-{[5-(4-chlorophenyl)-1,2-oxazol-3-yl]methylidene}-4-oxo-2-sulfanylidene-1,3-thiazolidin-3-yl]acetic acid], the IC50 in assay [1] is over 100 µM; in assay [2], 19.2 µM.
Turning to `O=C(O)CN1C(=O)/C(=C/c2cc(-c3ccc(F)cc3)on2)SC1=S` [2-[(5Z)-5-{[5-(4-fluorophenyl)-1,2-oxazol-3-yl]methylidene}-4-oxo-2-sulfanylidene-1,3-thiazolidin-3-yl]acetic acid], the concentration for half-maximal inhibition (IC50) in assay [1] is over 100 µM; in assay [2], 10 µM.
For `COc1ccc(-c2cc(/C=C3\SC(=S)N(CC(=O)O)C3=O)no2)cc1` [2-[(5Z)-5-{[5-(4-methoxyphenyl)-1,2-oxazol-3-yl]methylidene}-4-oxo-2-sulfanylidene-1,3-thiazolidin-3-yl]acetic acid], the values for the concentration for half-maximal inhibition (IC50) in assay [1] and in assay [2] were over 100 µM and 6.62 µM, respectively.
Take `Cc1ccc(-c2cc(/C=C3\SC(=S)N(CC(=O)O)C3=O)no2)cc1` [2-[(5Z)-5-{[5-(4-methylphenyl)-1,2-oxazol-3-yl]methylidene}-4-oxo-2-sulfanylidene-1,3-thiazolidin-3-yl]acetic acid]: the IC50 in assay [1] is over 100 µM; in assay [2], under 10 µM.
For `O=C(O)CN1C(=O)/C(=C/c2cc(-c3ccco3)on2)SC1=S` [2-[(5Z)-5-{[5-(furan-2-yl)-1,2-oxazol-3-yl]methylidene}-4-oxo-2-sulfanylidene-1,3-thiazolidin-3-yl]acetic acid], in assay [1], the IC50 was over 100 µM.
